Results: paper PMC10447463, “Data-mining unveils structure–property–activity correlation of viral infectivity enhancing self-assembling peptides” (Nature Communications, 2023)
Several values for one entry are separate records, joined by “and”; a condition that tells them apart may be missing. Identical values can stand only once.

Experiments:
[1] = Aggregate analysis by widefield fluorescence microscopy; format: physicochemical; conditions: for Number of Aggregates / Aggregate Number: ThT-stained aggregates > 10 µm2 in 1330 µm × 1330 µm, 1 mg/mL 1 d, diluted to 0.1 mg/mL with 50 µM ThT, 3D object counter ImageJ, triplicate
Procedure: 4 µL of 1 mg/mL peptide fibrils solution is added to a 20 µL, 50 µM ThT–solution in PBS. The mixture is incubated for 15 min at RT to allow binding of ThT dye with β–sheet rich structures. For reference PBS (4 µL) was added instead of peptide fibril solution. The samples were placed in black UV Star® 384 microliter well–plates (Greiner bio–one). Fluorescence spectra were recorded on an Infinite® M1000 PRO microplate reader (Tecan) at λem = 488 nm upon excitation at λex = 440 nm with 10 nm bandwidths and multiple reads per well (3×3). Measurements were repeated in triplicates and averaged with standard deviation. A peptide fibril was considered as ThT-active if the fluorescence intensity was at least twice as strong compared to the control (PBS containing 10% DMSO). Zeta-Potential. For the determination of the surface charge of aggregated peptides zeta-potential measurements were conducted with a Zetasizer Nano ZS, Malvern Instruments. Unless stated otherwise the peptides were dissolved from DMSO (10 mg/mL) in PBS (pH 7.4) to concentration of 1 mg/mL and incubated for 1d at RT. Just before the measurement the 60 µL of the peptides were further diluted in 600 µL KCl (aq, 1 mM) in a 1 mL disposable folded capillary cells (DTS–1060, Zetasizer Nano series, Malvern). The zeta potential of the peptides was derived from the electrophoretic mobility based on the Smoluchowski formula. All measurements were averaged over two individually performed experiments and conducted in triplicates for each sample. Aggregate analysis. […] Furthermore, fluorescence microscopy was conducted by staining 1 µL preformed fibrils (1 mg/mL) with 9 µL ThT (50 µM). Brightfield microscopy was performed simultaneously to evaluate aggregation also for non ThT-active fibrils. The measurements were performed on a Leica DMi8 microscope with 10x air objective and equipped with a Leica MC170 HD camera with a filter setting λem = 527/30 nm upon excitation at λex = 480/40 nm) and processed with the Leica LASX software. To quantify size and number of microscopic aggregation of particles > 10 µm^2 at least 3 independently measured images were analyzed via the 3D object counter analysis tool of ImageJ, v 1.53f51. Sum–frequency generation. The SFG experiments were carried out with a femtosecond Ti: Sapphire amplified laser system (Spitfire Ace, Spectra–Physics, 800 nm, 40 fs, 1 kHz) with 5 W output power. We used 2 W to pump an optical parametric amplifier (TOPAS, light conversion) with a non–collinear difference frequency generation stage to generate broadband IR pulses. Another 1 W of the laser output passed through an etalon to generate narrowband visible pulses (10 cm^-1). The incident angles of the visible and IR beams were 36° and 41° with respect to the surface normal, respectively. The visible (13 µJ) and IR (5 µJ) pulses were overlapped spatially and temporally at the sample position. Subsequently, the generated SFG pulse was guided into a spectrograph (Acton SP 300i, Princeton Instruments), and detected with an EMCCD (Newton, Andor Technology). To avoid IR absorption of water vapor, we purged N2 for the measurement. All spectra were collected in the ssp (denoting s-, s- and p-polarized SFG, visible and IR, respectively) polarization combination. The spectra were normalized to the non–resonant signal taken from z–cut quartz after subtracting a background spectrum.
Table S8 Summary of aggregate analysis from widefield microscopy measurements (Figure S32). The Number of aggregated peptides, the median size area, average size area
and the cumulative total size area of all particles (> 10 µm2) in an area of 1330 µm × 1330 µm was determined via automated 3D object counting (ImageJ) in triplicate
measurements (Std. Dev.).
Aggregate Std. Dev. Std. Dev. Std. Dev. Std. Dev.
Sequence Abs. Inf. / Std. Dev. / Count Rate / Std. Dev. Number Aggregate Median Area Median Area Average Area Average Area Total Area/ Total Area/ […]

TZM-bl cells = format: cell-based; conditions: CellTiter-Glo, mean of n = 3 replicates
Procedure: The cell viability after addition of peptides to TZM–bl cells was studied via the CellTiter–Glo assay. To this end, 10,000 cells were seeded and on the next day serial diluted peptides were added. After 3 days the supernatant was removed and 100 µL CellTiter–Glo Reagent 1:1 diluted in PBS was added. After 10 min 50 µL was transferred to white microplate and luminescence was recorded by Orion microplate luminometer.
2. Cell Viability of Representatively Selected Peptides
Figure S 2 Cell Viability normalized to 100% metabolic activity as determined by CellTiterGlo Assay of 57 representatively selected peptides from the library. The selection represents infectivity enhancing and not […]
concentration. Error bars indicate standard deviation from triplicate measurements. Source data for Figure S2 […]
Figure S3 Cell Viability normalized to 100% metabolic activity determined by CellTiterGlo Assay of 20 peptides reported in literature. 33,34,43–48,35–42 Cell viability (> 80%) is maintained for all peptides at 1.3 µM concentration regardless of the preparation method, which is A PNF formation method by dilution of 10 mg/mL peptide stock in DMSO in PBS to 1 mg/mL or B preparation according to literature reported protocol (SI Section 8). Error bars indicate standard deviation from triplicate measurements. Source data for Figure S3 is provided.

[2] = previously reported peptides only; ref sieste 2021 or Schilling2019; cited from earlier work
Excerpt: Supplement 41467_2023_40663_MOESM7_ESM.zip/FigS17.csv, table | column: Conversion Rate / % ( from sieste 2021 or Schilling2019)

CKAKAQANMWQ
Number of Aggregates / Aggregate Number [1]: 6

CKFKFQFW
Number of Aggregates / Aggregate Number [1]: 517

CKFKQFFNM
Number of Aggregates / Aggregate Number [1]: 704 ± 90 and 704

CKIKIQI
Number of Aggregates / Aggregate Number [1]: 317 ± 36 and 317

CKIKQII
Number of Aggregates / Aggregate Number [1]: 76 ± 12 and 76

CKIKQIINMWQ
Number of Aggregates / Aggregate Number [1]: 195

CQFQFQF
Number of Aggregates / Aggregate Number [1]: 46

CSISIQI
Number of Aggregates / Aggregate Number [1]: 123

HHHHKIKIKIKIWWWW
Number of Aggregates / Aggregate Number [1]: 446

HHHHKIKIKIKIWWWW [TM4]
viability 0.26 µM (TZM-bl cells; peptide 0.26 µM): 89.63 | viability 1.3 µM (TZM-bl cells; peptide 1.3 µM): 83.12 | viability 6.5 µM (TZM-bl cells; peptide 6.5 µM): 68.76 | Conversion Rate / % ( from sieste 2021 or Schilling2019) [2]: 96% | Avg Area in 3 *(1330 µm *1330 µm) ([1]; Fig S8 panels A, C): 50.02 | Log 10 Number of aggregates in 3 * (1330 µm *1330 µm) ([1]; Fig S8 panels A, C): 2.649 | Median Area in 3 * (1330 µm *1330 µm) ([1]; Fig S8 panels A, C): 24.51 | log Avg Area in 3 * ( (1330 µm *1330 µm)) ([1]; Fig S8 panels A, C): 1.699 | log Median Area in 3 * ( (1330 µm *1330 µm)) ([1]; Fig S8 panels A, C): 1.389 | log Total Area of all particles in 3 * (1330 µm *1330 µm) ([1]; Fig S8 panels A, C): 4.348 | Number of aggregates in 3 * (1330 µm *1330 µm) ([1]; Fig S8 panels A, C, 3 fields of 1330 µm x 1330 µm): 445.7 | Avg Area in 3 *(1330 µm *1330 µm) ([1]; Fig S8 panels B, D, average aggregate area, 3 fields of 1330 µm x 1330 µm): 50.02 | Median Area in 3 * (1330 µm *1330 µm) ([1]; Fig S8 panels B, D, median aggregate area, 3 fields of 1330 µm x 1330 µm): 24.51 | Total Area of all particles in 3 * (1330 µm *1330 µm) ([1]; Fig S8 panels B, D, total area of all particles, 3 fields of 1330 µm x 1330 µm): 22293.86733 | Number of aggregates in 3 * (1330 µm *1330 µm) ([1]; Fig S8 panels B, D, widefield fluorescence microscopy, 3 fields of 1330 µm x 1330 µm): 445.7

HHHHKIKIKIKIYYYY
Number of Aggregates / Aggregate Number [1]: 147

HHHHKIKIQINMYYYY
Number of Aggregates / Aggregate Number [1]: 234

KIKIQIC
Number of Aggregates / Aggregate Number [1]: 82

RGDSGGGGGGKIKIQIC
Number of Aggregates / Aggregate Number [1]: 72
